No end group written: not given here.
Tests used:
Assay type in all cases: cell-based
[1] = tested on: Aspergillus fumigatus AF293 (NCPF7367); assay: microbe, parasite or virus in culture; settings: Aspergillus fumigatus 293; peptides; Tables 4 and 5
Method: (§1) Four compounds were supplied as an aqueous solution, 400 μM. Serial dilutions of each test peptide were prepared in addition to a control, which was a conventional antifungal drug, Amphoteracin B. Amphteracin B is obtained from Invitrogen or Melford laboratories.
(§2) Initial testing of the peptides was carried out against the following organisms: • 1) Aspergillus fumigatus AF293 (culture collection strain NCPF7367) • 2) Candida albicans 6862 (clinical isolate) • 3) Fusarium spp 5889 (clinical isolate) • 4) Fusarium spp 6507 (clinical isolate) • 5) Aspergillus terreus (clinical isolate) • 6) Aspergillus niger (clinical isolate) • 7) Staphylococcus aureus (Oxford strain, which is a standard reference strain used in MIC testing)
The bacterium S. aureus was tested with each of the peptides as a control. A suspension of each organism in an appropriate growth medium was added to the, dilutions of the peptides in order to give concentration ranges of 40 μM to 0.04 μM for each of the peptides, and 64-0.025 μg/ml for amphotericin B. Fungal strains were tested in RPMI media. RPMI is standard Roswell Park Memorial Institute medium (Morton, H. C., (1970) A survey of Commercially Available Tissue Culture Media. In Vitro 6: 89-108).
The final inoculum for S. aureus was 5×10^4 cfu/ml. The final inoculum for C. albicans was 2×10^3 cfu/ml. The final inoculum for Aspergillus fumigatus and for Fusarium spp was 2×10^4 cfu/ml.
(§3) Candida and S. aureus plates were read after 24 hrs incubation and the Aspergillus and Fusarium strains read after 48 hrs. The MIC was taken as the lowest drug or compound concentration that caused >80% reduction in growth compared with a drug free control.
Aspergillus fumigatus 293 (AF); and
FS1-FS4 were obtained from Bristol PHLS (British Public Health Laboratory Service UK). Aspergillus fumigatus 293 is publicly available as culture collection strain NCPF7367 (National Collection of Pathogenic Fungi Public Health Laboratory, Mycological Reference Laboratory Myrtle Road, Kingsdown, Bristol BS2 8EL) The Candida albicans was a clinical isolate obtained by standard means. […]

Fusarium solani 1 (FS1) = assay: Antifungal MIC (Example 4); settings: Fusarium solani 1; peptides; Tables 4 and 5
Method: (§4) The inventor expanded the work conducted in Example 1 by testing an expanded library of peptides derived from either apolipoprotein B or apolipoprotein E in order to further evaluate polypeptides in accordance with the invention. These experiments were conducted using the following fungal species:
(§5) FS1-FS4 were obtained from Bristol PHLS (British Public Health Laboratory Service UK). Aspergillus fumigatus 293 is publicly available as culture collection strain NCPF7367 (National Collection of Pathogenic Fungi Public Health Laboratory, Mycological Reference Laboratory Myrtle Road, Kingsdown, Bristol BS2 8EL) The Candida albicans was a clinical isolate obtained by standard means.
(§6) The methods used to determine, the IC50 values for each peptide were as described in the Example 1.

Fusarium solani 2 (FS2) = assay: Antifungal MIC (Example 4); settings: Fusarium solani 2; peptides; Tables 4 and 5
Method: as §4, §5, §6

Fusarium solani 3 (FS3) = assay: Antifungal MIC (Example 4); settings: Fusarium solani 3; peptides; Tables 4 and 5
Method: as §4, §5, §6

Fusarium solani 4 (FS4) = assay: Antifungal MIC (Example 4); settings: Fusarium solani 4; peptides; Tables 4 and 5
Method: as §4, §5, §6

[2] = tested on: Candida albicans (CA), clinical isolate; assay: Antifungal MIC (Example 4); settings: peptides, Tables 4 and 5
Method: as §4, §5, §6

fungi = settings: overall statement on the fungi tested
Method: as §1, §2
The bacterium S. aureus was tested with each of the peptides as a control. […] RPMI is standard Roswell Park Memorial Institute medium (Morton, H. C., (1970) A survey of Commercially Available Tissue Culture Media. In Vitro 6: 89-108).
as §3, §6

Substance | MIC values (>80% reduction) AF [1] [µM] | MIC values (>80% reduction) FS1 (Fusarium solani 1 (FS1)) [µM] | MIC values (>80% reduction) FS2 (Fusarium solani 2 (FS2)) [µM] | MIC values (>80% reduction) FS3 (Fusarium solani 3 (FS3)) [µM] | MIC values (>80% reduction) FS4 (Fusarium solani 4 (FS4)) [µM] | MIC values (>80% reduction) CA [2] [µM] | antifungal activity (in words) (fungi)
ARKARKRAAARKARKRAA (Artificial polypeptide designated MU 2) [MU_2, 77] | >40 | >40 | >40 | >40 | >40 | >40 | –
CRKCRKRCCCRKCRKRCC (Artficial polypeptide designated MU 12) [MU_12] | 40 | 2.5 | 5 | 10 | 5 | >40 | particularly effective antifungal peptides
DRKDRKRDDDRKDRKRDD (Artificial polypeptide designated MU 3) [MU_3, 78] | >40 | >40 | >40 | >40 | >40 | >40 | –
ERKERKREEERKERKREE (Artificial polypeptide designated MU 1) [MU_1, 76] | >40 | >40 | >40 | >40 | >40 | >40 | –
GRKGRKRGGGRKGRKRGG (Artificial polypeptide designated MU 17) [MU_17, 84] | >40 | >40 | >40 | >40 | >40 | >40 | –
HRKHRKRHHHRKHRKRHH (Artificial polypeptide designated MU 19) [MU_19] | >40 | 20 | >40 | 40 | 10 | >40 | –
IRKIRKRIIIRKIRKRII (Artficial polypeptide designated MU 8) [MU_8] | >40 | 40 | 20 | 20 | 40 | >40 | –
KRKKRKRKKKRKKRKRKK (Artificial polypeptide designated MU 18) [MU_18, 85] | >40 | 2.5 | 10 | 2.5 | >40 | >40 | particularly effective antifungal peptides
LRKLRKRLL (listed as Homo sapiens) [apoE141-149, monomeric 9-mer of apolipoprotein E, reference compound] | – | – | – | – | – | – | no detectable antifungal activity
LRKLRKRLLLRKLRKRWW (Artificial polypeptide designated MU 112) [MU_112, 24] | >40 | 2.5 | 2.5 | 2.5 | 5 | >40 | –
LRKLRKRLLRLRKLRKRLLR (Artificial polypeptide designated MU 82) [MU_82, 21] | >40 | 2.5 | 2.5 | 2.5 | 10 | >40 | –
MRKMRKRMMMRKMRKRMM (Artificial polypeptide designated MU 16) [MU_5] | >40 | 10 | 20 | 20 | 40 | >40 | –
NRKNRKRNNNRKNRKRNN (Artificial polypeptide designated MU 11) [MU_11, 80] | >40 | >40 | >40 | 40 | >40 | >40 | –
PRKPRKRPPPRKPRKRPP (Artificial polypeptide designated MU 20) [MU_20, 86] | >40 | >40 | >40 | >40 | >40 | >40 | –
QRKQRKRQQQRKQRKRQQ (Artificial polypeptide designated MU 9) [MU_9, 79] | >40 | >40 | >40 | >40 | >40 | >40 | –
RLTRKRGLK (listed as Homo sapiens) [apoB3359-3367, monomeric 9-mer of apolipoprotein B, reference compound] | – | – | – | – | – | – | no detectable antifungal activity
SRKSRKRSSSRKSRKRSS (Artificial polypeptide designated MU 13) [MU_13, 81] | >40 | >40 | >40 | >40 | >40 | >40 | –
TRKTRKRTTTRKTRKRTT (Artificial polypeptide designated MU 15) [MU_15, 83] | >40 | >40 | >40 | >40 | >40 | >40 | –
VRKVRKRVVVRKVRKRVV (Artificial polypeptide designated MU 14) [MU_14, 82] | >40 | >40 | >40 | >40 | >40 | >40 | –
WRKWRKRWWLRKLRKRLL (Artificial polypeptide designated GIN 34) | 40 | 1.25 | 0.6 | 1.25 | 12.5 | 10 | –
modified apoB3359-3367: SEQ ID No. 7; modified form of the apoB3359-3367 9-mer, sequence shown only in Table 1 drawing (LRTRKRGRK; not fully specified) [reference compound] | – | – | – | – | – | – | no detectable antifungal activity

Reference: patent US8916516B2, “Treatment of fungal and/or protist infections” (AI2 Limited, priority 2005, dated 2014)
